The source of these data is patent publication US20260001875A1, “AMINOPYRIMIDINYL DERIVATIVES FOR THE TREATMENT OF PARKINSON'S DISEASE” (UNIVERSITY OF DUNDEE, priority 2022, published 2026).

The nature of one data set: Caco-2 permeability. The class given is in vitro ADME. The settings on record: human, Caco-2.
In a further data set the test system is Caco-2 mono-cell layer. Kind of data set: Caco-2 permeability. It counts as in vitro ADME. A general note: Caco-2 cells form a polarised layer with tight junctions and transporters.
A short description of data set [1]: Stability in mouse liver microsome. It counts as in vitro ADME. Conditions: liver microsomes, read-out: T1/2 in mouse liver microsome. A general note: Liver microsomes are vesicles of endoplasmic reticulum, rich in cytochrome P450 enzymes.
For another data set, the system named is LRRK2 pSer935. Kind of data set: LRRK2 Ser935 dephosphorylation in PBMC. It counts as cell-based, human. The settings on record: time course at 300 nM. As to the method: PBMC cells were separated from human blood following existing protocol (dx.doi.org/10.17504/protocols.io.bnhxmb7n) and pelleted by centrifugation at 1000 g for 2 min. The supernatant was discarded and the PBMC pellet was resuspended in PBS containing 2% FBS for washing. The suspension was centrifuged at 1000 g for 2 min again and the PBMC pellet was resuspended in RPMI-1640 (Gibco) media supplemented with 10% FBS. The cells were then seeded into 6-well plates and treated with testing compounds at indicated concentrations and time period. After treatment, the cells were collected into 2-ml Eppendorf tube and centrifuged at 500 g for 2 min to pellet the cells, the supernatant was discarded, and the pellet was resuspended in 1 ml PBS and centrifuged at 500 g for 2 min again. […] The supernatants were collected for analysis by quantitative immunoblotting. […] Protein concentrations of cell lysates were determined using Pierce™ BCA Protein Assay Kit (ThermoFisher).
Cell lysates containing a quarter of a volume of 4× NuPAGE LDS sample buffer (NP0007) supplemented with 5% β-mercaptoethanol, were heated at 95° C. for 5 minutes. […] Thereafter, the membranes were washed with TBS-T three times with a 15-minute incubation for each wash, and protein bands were acquired via near-infrared fluorescent detection using the Odyssey CLx imaging system and quantified using Image Studio software. […]

“Also recorded” adds a separate entry of the source.

One may read the Papp A→B as how fast a substance crosses the layer from the apical side. Lower therefore signals slow passage. Usually Papp B→A stands for how fast a substance crosses the layer from the basolateral side.

In turn, `CNc1nc(Nc2ccc(C(=O)N3CCN(C[C@H]4CC[C@H](CSC(C)(C)[C@H](NC(=O)C5(F)CC5)C(=O)N5C[C@H](O)CC5C(=O)NCc5ccc(-c6scnc6C)cc5)CC4)CC3)cc2OC)ncc1Cl` (stereo partly drawn) [XL01126, (2S,4R)-1-((R)-3-((((1R,4R)-4-((4-(4-((5-chloro-4-(methylamino)pyrimidin-2-yl)amino)-3-methoxybenzoyl)piperazin-1-yl)methyl)cyclohexyl)methyl)thio)-2-(1-fluorocyclopropane-1-carboxamido)-3-methylbutanoyl)-4-hydroxy-N-(4-(4-methylthiazol-5-yl)benzyl)pyrrolidine-2-carboxamide] yielded a Papp A→B in the data set “Caco-2 permeability” (A − B) of under 0.74 ×10⁻⁶ cm/s. This compound had a Papp B→A in “Caco-2 permeability” (B − A) of under 1.43 ×10⁻⁶ cm/s. In addition, the “penetration of Caco-2 mono-cell layer (in words)” value in the data set with Caco-2 mono-cell layer was “can penetrant Caco-2 mono-cell layer; also recorded: can penetrate Caco-2 mono-cell layer”. In addition, the half-life in data set [1] worked out at 3.65 min. In addition, the “T1/2 of LRRK2 dephosphorylation in PBMC” value in the data set with LRRK2 pSer935 was 60 min.
